Tests used:
Format in all cases: physicochemical
[1] = Wet particle size distribution by laser diffraction (Malvern Mastersizer 3000); settings: dispersant heptane with 0.2% Span 80
Protocol: Wet particle size distributions were measured using a Malvern Mastersizer 3000 laser diffraction particle size analyzer, with stir speed set at 2200 rpm. Heptane with 0.2% by volume of Span 80 was used as dispersant. To obtain distribution measurements, the Hydro MV medium volume automated dispersion unit was filled with dispersant and aligned. The background was then measured. 80 to 100 mg of sample weighed into a 20 mL vial, to which approximately 3 mL of dispersant was added. The mass was adjusted based on the particle size, with obscuration between 5% and 16%. The whole sample was added to the Hydro MV unit, and the sample was analyzed five times after a 160 second pre-measurement delay. Analysis time was 20 seconds (10 seconds with the red laser, 10 seconds with the blue laser) with no delay between measurements. Data obtained was processed using Mie theory with a sample refractive index of 1.69 and absorption index of 0.1, using the general purpose model with normal sensitivity and the non-spherical particle type. 15 sets of raw data were averaged to form the Global Mean, which represents the average for a sample. If the sample was determined to be variable, further preparations were examined to determine which results were anomalous. Any anomalous results were discarded. Samples were thoroughly mixed prior to sampling (e.g., some samples were aliquoted using a spinning […]).

[2] = Thermogravimetric analysis (TA Instruments Q5000 TGA)
Protocol: Thermal gravimetric analysis of the samples was performed using the TA Instruments Q5000 TGA. Table 5 provides thermogravimetric analysis data for several distinct solid forms of Compound (I), including mass loss information from multiple replicates across different temperature ranges. As above, Comparator 1 corresponds to the solid form of Compound (I) prepared substantially in accordance with the process detailed in Step 1A in Example 1 of WO 2015/127310. Also, as above, Comparator 2 corresponds to the solid form of Compound (I) prepared substantially in accordance with the process detailed in Example 31 of WO 2014/039899. Comparator 3 corresponds to the solid form of Compound (I) prepared substantially in accordance with the process detailed in Step 1 in Example 1 of WO 2015/127310.

[3] = Mean bulk density, mean tapped density and Hausner ratio (modified USP <616>); settings: for Hausner ratio: ratio of initial volume to constant volume (Vo/Vf)
Protocol: Mean bulk density and mean tapped density were determined using a modified method based on USP <616>. Powder was poured into a clean, dry pre-weighed 25 mL cylinder. Powder was added to a total volume of 20 mL to 25 mL without compacting the sample. The mass and initial volume (Vo) of the powder were recorded. The mean bulk density was determined as the average of the mass over initial volume across multiple samples. To determine mean tapped density, the sample was tapped using a Copley JV2000 tapped density tester using the following number of taps: 500, 750, and sets of 1250 taps up to 10,000. The volume was recorded after each set of taps, and the sample was tapped until it reached a constant volume (Vf). The mean tapped density was determined as the average of mass over constant volume across multiple samples. Each sample was analyzed in duplicate. The Hausner ratio was calculated as the ratio of initial volume to the constant volume (Vo/Vf).

[4] = Modulated differential scanning calorimetry, glass transition temperature (TA Instrument Q2000 DSC); settings: for Tg at 25° C., 0% RH: 0% relative humidity
Protocol: Modulated differential scanning calorimetry (DSC) analysis was completed with a TA Instrument Q2000 DSC. The samples were heated at 2° C. min^−1, temperature modulation parameters of 0.318° C. (amplitude), and over a temperature range of 6-80° C. to 200° C. The samples were analyzed using a closed aluminum pan.

| Compound | Wet particle size distribution D10 [1] [μm] | Wet particle size distribution D50 [1] [μm] | Wet particle size distribution D90 [1] | Mean bulk density [3] [g/cc] | Mean tapped density [3] [g/cc] | Hausner ratio [3] | Tg at 25° C., 0% RH [4] [°C] | other results |
| --- | --- | --- | --- | --- | --- | --- | --- | --- |
| CC(C)(C=C(C#N)C(=O)N1CCCC(n2nc(-c3ccc(Oc4ccccc4)cc3F)c3c(N)ncnc32)C1)N1CCN(C2COC2)CC1 (stereo not shown) [Comparator 1, 2-[3-[4-amino-3-(2-fluoro-4-phenoxy-phenyl)pyrazolo[3,4-d]pyrimidin-1-yl]piperidine-1-carbonyl]-4-methyl-4-[4-(oxetan-3-yl)piperazin-1-yl]pent-2-enenitrile] | 18.3 | 237 | 694 μm | 0.28 | 0.39 | 1.4 |  | Mass loss during TGA ([2]; between 40° C. and 118° C.): 3.3% mass loss between 40 °C and 118 °C; Mass loss during TGA ([2]; between 118° C. and 237° C.): 3.2% mass loss between 118 °C and 237 °C |
| CC(C)(C=C(C#N)C(=O)N1CCCC(n2nc(-c3ccc(Oc4ccccc4)cc3F)c3c(N)ncnc32)C1)N1CCN(C2COC2)CC1 (stereo not shown) [Comparator 2, 2-[3-[4-amino-3-(2-fluoro-4-phenoxy-phenyl)pyrazolo[3,4-d]pyrimidin-1-yl]piperidine-1-carbonyl]-4-methyl-4-[4-(oxetan-3-yl)piperazin-1-yl]pent-2-enenitrile] | 56.9 | 258 | 575 μm | 0.20 | 0.27 | 1.4 | 90.1 | Mass loss during TGA ([2]; between 40° C. and 135° C.): 3.7% mass loss between 40 °C and 135 °C; Mass loss during TGA ([2]; between 135° C. and 233° C.): 2.3% mass loss between 135 °C and 233 °C |

Second part, led by results:

| Wet particle size distribution D10 [1] [μm] | Wet particle size distribution D50 [1] [μm] | Wet particle size distribution D90 [1] | Mean bulk density [3] [g/cc] | Mean tapped density [3] [g/cc] | Hausner ratio [3] | Tg at 25° C., 0% RH [4] [°C] | Compound | other results |
| --- | --- | --- | --- | --- | --- | --- | --- | --- |
|  |  |  |  |  |  | 90.1 | CC(C)(C=C(C#N)C(=O)N1CCCC(n2nc(-c3ccc(Oc4ccccc4)cc3F)c3c(N)ncnc32)C1)N1CCN(C2COC2)CC1 (stereo not shown) [Comparator 3, 2-[3-[4-amino-3-(2-fluoro-4-phenoxy-phenyl)pyrazolo[3,4-d]pyrimidin-1-yl]piperidine-1-carbonyl]-4-methyl-4-[4-(oxetan-3-yl)piperazin-1-yl]pent-2-enenitrile] | Mass loss during TGA ([2]; between 30° C. and 100° C.): 3.8% mass loss between 30 °C and 100 °C; Mass loss during TGA ([2]; between 100° C. and 140° C.): 17.6% mass loss between 100 °C and 140 °C |
| 1.9 |  | 476-683 μm |  |  | 1.2 |  | CC(C)(C=C(C#N)C(=O)N1CCCC(n2nc(-c3ccc(Oc4ccccc4)cc3F)c3c(N)ncnc32)C1)N1CCN(C2COC2)CC1 (stereo not shown) [Compound (I) prepared by a precipitation process described h] [2-[3-[4-amino-3-(2-fluoro-4-phenoxy-phenyl)pyrazolo[3,4-d]pyrimidin-1-yl]piperidine-1-carbonyl]-4-methyl-4-[4-(oxetan-3-yl)piperazin-1-yl]pent-2-enenitrile] | Mass loss during TGA ([2]; between 30° C. and 190° C.): 0.8% mass loss between 30 °C and 190° C.;; Mass loss during TGA ([2]; between 40° C. and 205° C.): 0.4% mass loss between 40 °C and 205° C.;; Mass loss during TGA ([2]; between 40° C. and 225° C.): 0.7% mass loss between 40 °C and 225 °C; Mass loss during TGA ([2]; between 43° C. and 230° C.): 1.9% mass loss between 43 °C and 230° C.;; Mass loss during TGA ([2]; between 44° C. and 230° C.): 1.0% mass loss between 44 °C and 230 °C; Tg at 25° C., 60% RH ([4]; 60% relative humidity, listed as Compound (I) prepared by precipitation process described herein (not micronized)): 69.6 °C |
| 5.24 | 13.3 | 28.4 μm | 0.20 | 0.28 | 1.4 |  | CC(C)(C=C(C#N)C(=O)N1CCCC(n2nc(-c3ccc(Oc4ccccc4)cc3F)c3c(N)ncnc32)C1)N1CCN(C2COC2)CC1 (stereo not shown) [Compound (I) prepared by a spray drying process described he] [2-[3-[4-amino-3-(2-fluoro-4-phenoxy-phenyl)pyrazolo[3,4-d]pyrimidin-1-yl]piperidine-1-carbonyl]-4-methyl-4-[4-(oxetan-3-yl)piperazin-1-yl]pent-2-enenitrile] | Mass loss during TGA ([2]; between 35° C. and 230° C.): 1.2% mass loss between 35 °C and 230 °C; Tg at 25° C., 0% RH ([4]; listed as Compound (I) prepared by spray drying process described herein): 93.8 °C |

Reference: patent US12673953B2, “Process for preparing an amorphous form of 2-[3-[4-amino-3-(2-fluoro-4-phenoxyphenyl)pyrazolo[3,4-d]pyrimidin-1-yl]piperidine-1-carbonyl]-4-methyl-4-[4-(oxetan-3-yl)piperazin-1-yl]pent-2-enenitrile” (Principia Biopharma Inc., priority 2019, dated 2026)
